Earlier results, collected in US20120309684A1, “CONJUGATES FOR DELIVERY OF BIOLOGICALLY ACTIVE COMPOUNDS” (ISIS INNOVATION LIMITED, priority 2009, published 2012).

Columns and labels:
dystrophin protein = conditions: seven weekly doses at 100 mg/kg, systemic intravenous
[1] = test system: cardiac compared with skeletal muscle

Row | Substance | restoration of dystrophin protein with naked PMO (dystrophin protein) | lower binding affinity for cardiac compared with skeletal muscle [1]
1 | GGCCAAACCTCGGCTTACCTGAAAT (all phosphorodiamidate morpholino (PMO); Tested constructs carry cell-penetrating peptides (B, MSP) conjugated to PMO) | moderate restoration | –
2 | ASSLNIA (Sequence for inclusion in target-delivery peptide) [MSP] | – | 2-3 fold
